The results in this text go back to patent US10604502B2, “Substituted 5-cyanoindole compounds and uses thereof” (Novartis AG, priority 2017, dated 2020).

As a reminder, the AC50 is the midpoint of the concentration-response curve, whichever way the signal moves.

SMILES strings stand for the structures.

In the experiment the test system is CD86 mRNA expression in MV4-11 cells. Nature of the experiment: CD86 mRNA expression assay (qPCR assay) in MV4-11 cells. The class given is cell-based. The settings on record: Homo sapiens, 24 hours treatment, CD86 mRNA normalized against ACTB, read-out: CD86 induction qPCR in MV4-11 AC50. The method, then:
MV4-11 cells were treated with representative compound of the present invention and RNA was extracted, followed by reverse transcription and Real-Time PCR. […] The data were used for dose response curve fitting in GraphPad Prism to calculate the AC50 of each compound. AC50 of CD86 mRNA expression activation after treatment of representative compounds of present invention will reflect the inhibition of LSD1 activity.
For orientation: In qPCR the cycle at which signal appears reflects the starting amount.

As for `Cc1cc2c(cc1C#N)c(-c1cncc(N)c1F)cn2[C@H]1CC[C@H](O)CC1` [Example 5, 3-(5-amino-4-fluoropyridin-3-yl)-1-((1R,4R)-4-hydroxycyclohexyl)-6-methyl-1H-indole-5-carbonitrile], the AC50 was found to be 3620 nM.

Turning to `Cc1cc2c(cc1C#N)c(-c1cncc(N)c1Cl)cn2[C@H]1CC[C@H](S(C)(=O)=O)CC1` [Example 47, 3-(5-amino-4-chloropyridin-3-yl)-6-methyl-1-((1R,4R)-4-(methylsulfonyl)cyclohexyl)-1H-indole-5-carbonitrile], the AC50 is 202 nM.

For `N#Cc1cc2c(-c3cncc(N)c3Cl)cn([C@H]3CC[C@H](O)CC3)c2cc1Cl` [Example 7, 3-(5-amino-4-chloropyridin-3-yl)-6-chloro-1-((1R,4R)-4-hydroxycyclohexyl)-1H-indole-5-carbonitrile], the AC50 was 569 nM.

For `Cc1cc2c(cc1C#N)c(-c1cncc(N)c1Cl)cn2C1CCC(C(N)=O)C1` (stereo not shown) [Example 68, 3(3-(5-amino-4-chloropyridin-3-yl)-5-cyano-6-methyl-1H-indol-1-yl)cyclopentane-1-carboxamide], the AC50 amounted to 464 nM.

In the case of `Cc1cc2c(cc1C#N)c(-c1cncc(N)c1Cl)cn2-c1ccc(S(C)(=O)=O)cc1` [Example 77, 3-(5-amino-4-chloropyridin-3-yl)-6-methyl-1-(4-(methylsulfonyl)phenyl)-1H-indole-5-carbonitrile], the AC50 turned out to be 7 nM.

In the case of `Cc1cc2c(cc1C#N)c(-c1cncc(N)c1Cl)cn2[C@H]1CC[C@H](O)CC1` [Example 1, 3-(5-amino-4-chloropyridin-3-yl)-1-((1R,4R)-4-hydroxycyclohexyl)-6-methyl-1H-indole-5-carbonitrile], the half-maximal activity concentration (AC50) came to 98 nM.

Turning to `Cc1cc2c(cc1C#N)c(-c1cncc(N)c1Cl)cn2-c1ccc(=O)n(C)c1` [Example 84, 3-(5-amino-4-chloropyridin-3-yl)-6-methyl-1-(1-methyl-6-oxo-1,6-dihydropyridin-3-yl)-1H-indole-5-carbonitrile], the AC50 is 1490 nM.
